Experimental data: PubChem BioAssay (NCI)
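Each compound was tested at five concentrations against cells in 96-well plates for 48 hours. GI50 marks 50% less growth. The concentration for full growth arrest is given as TGI.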

Key:
Experiment in all cases: DTP human tumour cell line panel, 48 h
SK-OV-3 ovarian = system: SK-OV-3 ovarian
CCRF-CEM leukemia = system: CCRF-CEM leukemia
NCI-H522 lung = system: NCI-H522 lung
OVCAR-5 ovarian = system: OVCAR-5 ovarian
UO-31 renal = system: UO-31 renal
COLO 205 colon = system: COLO 205 colon
SK-MEL-28 melanoma = system: SK-MEL-28 melanoma
ACHN renal = system: ACHN renal
U251 CNS = system: U251 CNS
TK-10 renal = system: TK-10 renal
KM12 colon = system: KM12 colon
SK-MEL-5 melanoma = system: SK-MEL-5 melanoma
NCI-H23 lung = system: NCI-H23 lung
MDA-MB-435 = system: MDA-MB-435
K-562 leukemia = system: K-562 leukemia
786-0 renal = system: 786-0 renal
BT-549 breast = system: BT-549 breast
SK-MEL-2 melanoma = system: SK-MEL-2 melanoma
MCF7 breast = system: MCF7 breast
A498 renal = system: A498 renal
DU-145 prostate = system: DU-145 prostate
IGROV1 ovarian = system: IGROV1 ovarian
MOLT-4 leukemia = system: MOLT-4 leukemia
HCT-116 colon = system: HCT-116 colon
HT29 colon = system: HT29 colon
PC-3 prostate = system: PC-3 prostate
OVCAR-8 ovarian = system: OVCAR-8 ovarian
HCC-2998 colon = system: HCC-2998 colon
M14 melanoma = system: M14 melanoma
SF-268 CNS = system: SF-268 CNS
SW-620 colon = system: SW-620 colon
SF-295 CNS = system: SF-295 CNS
A549 NSCLC = system: A549 NSCLC
HOP-92 NSCLC = system: HOP-92 NSCLC
T-47D breast = system: T-47D breast
SNB-75 CNS = system: SNB-75 CNS
UACC-62 melanoma = system: UACC-62 melanoma
HS 578T breast = system: HS 578T breast
SN12C renal = system: SN12C renal
NCI-H460 lung = system: NCI-H460 lung
EKVX NSCLC = system: EKVX NSCLC
HCT-15 colon = system: HCT-15 colon
NCI/ADR-RES ovarian = system: NCI/ADR-RES ovarian
HOP-62 NSCLC = system: HOP-62 NSCLC
OVCAR-4 ovarian = system: OVCAR-4 ovarian
UACC-257 melanoma = system: UACC-257 melanoma
HL-60(TB) leukemia = system: HL-60(TB) leukemia
OVCAR-3 ovarian = system: OVCAR-3 ovarian
SR leukemia = system: SR leukemia
NCI-H226 lung = system: NCI-H226 lung
RPMI-8226 leukemia = system: RPMI-8226 leukemia
SF-539 CNS = system: SF-539 CNS
CAKI-1 renal = system: CAKI-1 renal
MALME-3M melanoma = system: MALME-3M melanoma
SNB-19 CNS = system: SNB-19 CNS
MDA-MB-231 breast = system: MDA-MB-231 breast
LOX IMVI melanoma = system: LOX IMVI melanoma
RXF 393 renal = system: RXF 393 renal

With `COc1cc2c3c(cc4c5c(ccc4c3c1OC)OCO5)N(CCN(C)C)C2=O` the GI50 (SK-OV-3 ovarian) was 74.6 nM, the TGI (SK-OV-3 ovarian) was 600 nM and the GI50 (CCRF-CEM leukemia) was 28.1 nM. It also gave a TGI (CCRF-CEM leukemia) of 9640 nM, a GI50 (NCI-H522 lung) of 101 nM and a TGI (NCI-H522 lung) of 599 nM. It also gave a GI50 (OVCAR-5 ovarian) of 133 nM, a TGI (OVCAR-5 ovarian) of 907 nM and a GI50 (UO-31 renal) of 34.3 nM. It also gave a TGI (UO-31 renal) of 201 nM, a GI50 (COLO 205 colon) of 116 nM and a TGI (COLO 205 colon) of 935 nM. For the same compound, the GI50 (SK-MEL-28 melanoma) was 182 nM, the TGI (SK-MEL-28 melanoma) was 676 nM and the GI50 (ACHN renal) was 21.5 nM. The TGI (ACHN renal) was 81.2 nM, the GI50 (U251 CNS) was 38.9 nM and the TGI (U251 CNS) was 1430 nM. It also gave a GI50 (TK-10 renal) of 170 nM, a TGI (TK-10 renal) of 702 nM and a GI50 (KM12 colon) of 196 nM. It also gave a TGI (KM12 colon) of 11700 nM, a GI50 (SK-MEL-5 melanoma) of 92.4 nM and a TGI (SK-MEL-5 melanoma) of 225 nM. For the same compound, the GI50 (NCI-H23 lung) was 53.8 nM, the TGI (NCI-H23 lung) was 339 nM and the GI50 (MDA-MB-435) was 170 nM. For the same compound, the TGI (MDA-MB-435) was 615 nM, the GI50 (K-562 leukemia) was 50 nM and the GI50 (786-0 renal) was 35 nM. For the same compound, the TGI (786-0 renal) was 654 nM, the GI50 (BT-549 breast) was 234 nM and the TGI (BT-549 breast) was 1530 nM. It also gave a GI50 (SK-MEL-2 melanoma) of 313 nM, a TGI (SK-MEL-2 melanoma) of 804 nM and a GI50 (MCF7 breast) of 32.2 nM. The TGI (MCF7 breast) was 579 nM, the GI50 (A498 renal) was 77.6 nM and the TGI (A498 renal) was 299 nM. The GI50 (DU-145 prostate) was 35.4 nM, the TGI (DU-145 prostate) was 490 nM and the GI50 (IGROV1 ovarian) was 47.2 nM. It also gave a TGI (IGROV1 ovarian) of 501 nM, a GI50 (MOLT-4 leukemia) of 23.6 nM and a TGI (MOLT-4 leukemia) of 1410 nM. The GI50 (HCT-116 colon) was 42.9 nM, the TGI (HCT-116 colon) was 422 nM and the GI50 (HT29 colon) was 87.1 nM. It also gave a TGI (HT29 colon) of 1260 nM, a GI50 (PC-3 prostate) of 157 nM and a TGI (PC-3 prostate) of 4440 nM. For the same compound, the GI50 (OVCAR-8 ovarian) was 59.6 nM, the TGI (OVCAR-8 ovarian) was 5980 nM and the GI50 (HCC-2998 colon) was 85.8 nM. The TGI (HCC-2998 colon) was 295 nM, the GI50 (M14 melanoma) was 46.6 nM and the TGI (M14 melanoma) was 400 nM. The GI50 (SF-268 CNS) was 104 nM, the TGI (SF-268 CNS) was 1040 nM and the GI50 (SW-620 colon) was 36.3 nM. For the same compound, the TGI (SW-620 colon) was 1330 nM, the GI50 (SF-295 CNS) was 33.5 nM and the TGI (SF-295 CNS) was 229 nM. It also gave a GI50 (A549 NSCLC) of 13.3 nM, a TGI (A549 NSCLC) of 385 nM and a GI50 (HOP-92 NSCLC) of 60.9 nM. For the same compound, the TGI (HOP-92 NSCLC) was 561 nM, the GI50 (T-47D breast) was 64.9 nM and the TGI (T-47D breast) was 3050 nM. For the same compound, the GI50 (SNB-75 CNS) was 71.1 nM, the TGI (SNB-75 CNS) was 583 nM and the GI50 (UACC-62 melanoma) was 56.7 nM. It also gave a TGI (UACC-62 melanoma) of 229 nM, a GI50 (HS 578T breast) of 190 nM and a TGI (HS 578T breast) of 1280 nM. The GI50 (SN12C renal) was 31.8 nM, the TGI (SN12C renal) was 378 nM and the GI50 (NCI-H460 lung) was 17.6 nM. The TGI (NCI-H460 lung) was 147 nM, the GI50 (EKVX NSCLC) was 104 nM and the TGI (EKVX NSCLC) was 669 nM. For the same compound, the GI50 (HCT-15 colon) was 34 nM, the TGI (HCT-15 colon) was 605 nM and the GI50 (NCI/ADR-RES ovarian) was 68.5 nM. The TGI (NCI/ADR-RES ovarian) was 675 nM, the GI50 (HOP-62 NSCLC) was 35.9 nM and the TGI (HOP-62 NSCLC) was 1620 nM. It also gave a GI50 (OVCAR-4 ovarian) of 309 nM, a TGI (OVCAR-4 ovarian) of 7840 nM and a GI50 (UACC-257 melanoma) of 166 nM. It also gave a TGI (UACC-257 melanoma) of 596 nM, a GI50 (HL-60(TB) leukemia) of 22.6 nM and a TGI (HL-60(TB) leukemia) of 118 nM. The GI50 (OVCAR-3 ovarian) was 199 nM, the TGI (OVCAR-3 ovarian) was 1140 nM and the GI50 (SR leukemia) was 22.5 nM. It also gave a GI50 (NCI-H226 lung) of 69.6 nM, a TGI (NCI-H226 lung) of 344 nM and a GI50 (RPMI-8226 leukemia) of 43.7 nM. For the same compound, the TGI (RPMI-8226 leukemia) was 517 nM, the GI50 (SF-539 CNS) was 110 nM and the TGI (SF-539 CNS) was 411 nM. It also gave a GI50 (CAKI-1 renal) of 39.3 nM, a TGI (CAKI-1 renal) of 261 nM and a GI50 (MALME-3M melanoma) of 64.2 nM. It also gave a TGI (MALME-3M melanoma) of 258 nM, a GI50 (SNB-19 CNS) of 38.9 nM and a TGI (SNB-19 CNS) of 2610 nM. For the same compound, the GI50 (MDA-MB-231 breast) was 249 nM, the TGI (MDA-MB-231 breast) was 1610 nM and the TGI (LOX IMVI melanoma) was 49.6 nM. The GI50 (RXF 393 renal) was 89.4 nM and the TGI (RXF 393 renal) was 264 nM.
